The values that follow come from patent US20130109682A1, “CYCLIC ETHER COMPOUNDS USEFUL AS KINASE INHIBITORS” (NOVARTIS AG, priority 2010, published 2013).

For one assay, the target named is PIM2 (Homo sapiens, UniProt Q9P1W9). The experiment in a line: Pim 2 AlphaScreen assay (high ATP). It counts as biochemical. The note with it: read-out: Pim2 IC50. The method in brief:
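IC50 values rest on detection of phosphorylated Bad peptide: after a ~2 h kinase reaction, an EDTA stop buffer containing anti-phospho Ser/Thr antibody, Protein A and streptavidin AlphaScreen beads was added and read after overnight dark incubation. ATP was high (11-125× Km), with 2.5% DMSO in pH 7.5 Hepes buffer containing MgCl2, BSA, Tween-20 and DTT.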
(In general: In Alpha technology, singlet oxygen from a donor bead excites a nearby acceptor bead.)

Another assay concerns the target FGFR3 kinase (Homo sapiens, UniProt P22607). The experiment in a line: FGFR3 kinase inhibition assay (LanthaScreen TR-FRET). It counts as biochemical. The protocol: FGFR3 Kinase Inhibition Assay
LanthaScreen™ is the detection of Time-Resolved Fluorescence Resonance Energy Transfer (TR-FRET) using lanthanide chelates to measure interactions between various binding partners. The application of TR-FRET to assay kinase activity was first described by Mathis (1995). A TR-FRET assay was used to measure FGFR3 kinase inhibitory activity. The assay panel was run on a Biomek FX liquid handling workstations. To the assay plates containing […] compound or control solutions, 4.5 μL of buffer A (50 mM TRIS-HCl pH 7.4, 2 mM DTT, 0.02% Tween 20, 0.02 mM Na3VO4, H2O nanpure) including a generic concentration of ATP (2 μM f.c.) was added per well, followed by 4.5 μL of buffer B (4 uM ATP in Buffer A) including a generic concentration of polyEAY (50 nM f.c.), FGFR3 kinase, and divalent cations. Final concentration of kinase and cations were: [FGFR3 kinase]=0.20 nM, [Mg]=3 mM, [Mn]=3 mM. After 1 hour of incubation the kinase reactions were stopped by the addition of 4.5 μL of stop solution D (50 mM EDTA, 20 mM TRIS-HCl pH 7.4, 0.04% NP-40) immediately followed by 4.5 μL of buffer A (50 mM TRIS-HCl pH 7.4, 2 mM DTT, 0.02% Tween 20, 0.02 mM Na3VO4, H2O nanpure) including the Tb-labeled P-20 antibody to give a total detection volume of 18 μL. After an incubation time of 45 min in the dark, the plates were transferred into the Pherastar fluorescence reader for counting. The effect of compound on the enzymatic activity was obtained from the linear progress curves and determined from one reading (end point measurement).
For orientation: Time-resolved FRET reads energy transfer from a long-lived donor to a nearby acceptor.

The next assay has as its target T1, hERG (Homo sapiens, UniProt Q12809).
T1 construct: host or cells: crude membrane suspension
Put plainly: hERG binding assay ([3H] dofetilide displacement). To be noted: read-out: HERGdof IC50. The procedure:
Compounds of the invention were pipetted into each well of pre-wet 96-well Millipore GF/C filter plates (#MSFCN6B50): 119 μl assay buffer, 1 μl test compound in 100% DMSO (or 100% DMSO only for total binding), 40 μl [3H] dofetilide (12.5 nM, final concentration 2.5 nM; Novartis radioisotope laboratory, East Hanover, N.J., USA, specific activity 15-45 Ci/mmol); 40 μl crude membrane suspension (ca. 15 μg protein). The final concentration of DMSO during the incubation was 0.5%. Incubations were performed at room temperature for 90 min. Non-specific binding (NSB) was defined as the binding remaining in the presence of 25 μM terfenadine (Sigma T9652). The incubations were terminated by rapid filtration on a Millipore filtration manifold, followed by three washes of 200 μA ice-cold assay buffer. The plates were left to dry overnight before adding 40 μA scintillant (MicroScint-20). The plates were then sealed (Sealing Tape SI, Nunc 236366) and read in a Wallac MicroBeta Trilux beta-counter for 1.5 min per well. Compounds were tested as 9-concentration response curves in duplicate, ranging from 30 μM to 3 nM in 1:3 dilution steps. Dilution curves were prepared in 100% DMSO. The reference compound (terfenadine) was tested as an eight-concentration response curve, ranging from 10 μM to 0.6 nM in 1:4 dilution steps.
Background: Block of hERG is tested as a sign of cardiac risk.

SMILES strings stand for the structures. Where two headings read alike, the source gives them in different places.

Sequence of FGFR3 kinase (P22607 23-806): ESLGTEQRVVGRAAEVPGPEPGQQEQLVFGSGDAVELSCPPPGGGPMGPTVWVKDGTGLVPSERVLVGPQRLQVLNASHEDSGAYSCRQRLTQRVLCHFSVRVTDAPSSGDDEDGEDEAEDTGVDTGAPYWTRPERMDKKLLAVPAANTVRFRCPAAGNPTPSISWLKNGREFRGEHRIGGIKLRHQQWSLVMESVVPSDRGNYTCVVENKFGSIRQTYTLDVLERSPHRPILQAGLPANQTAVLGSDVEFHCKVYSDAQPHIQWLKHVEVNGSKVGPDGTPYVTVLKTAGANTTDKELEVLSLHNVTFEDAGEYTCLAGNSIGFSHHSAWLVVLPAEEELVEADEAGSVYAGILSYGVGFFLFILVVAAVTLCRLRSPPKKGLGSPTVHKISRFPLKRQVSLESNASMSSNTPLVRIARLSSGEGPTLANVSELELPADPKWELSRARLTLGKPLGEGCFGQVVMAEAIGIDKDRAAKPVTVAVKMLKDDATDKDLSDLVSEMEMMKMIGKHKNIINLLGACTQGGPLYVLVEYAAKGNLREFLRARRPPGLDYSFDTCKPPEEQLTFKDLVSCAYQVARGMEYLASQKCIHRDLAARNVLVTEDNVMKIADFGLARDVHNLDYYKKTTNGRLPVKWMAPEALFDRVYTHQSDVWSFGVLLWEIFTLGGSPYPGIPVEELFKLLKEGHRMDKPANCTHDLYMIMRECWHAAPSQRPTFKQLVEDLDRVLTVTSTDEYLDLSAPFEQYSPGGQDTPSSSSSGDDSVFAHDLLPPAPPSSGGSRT
T1 sequence (Q12809 whole entry): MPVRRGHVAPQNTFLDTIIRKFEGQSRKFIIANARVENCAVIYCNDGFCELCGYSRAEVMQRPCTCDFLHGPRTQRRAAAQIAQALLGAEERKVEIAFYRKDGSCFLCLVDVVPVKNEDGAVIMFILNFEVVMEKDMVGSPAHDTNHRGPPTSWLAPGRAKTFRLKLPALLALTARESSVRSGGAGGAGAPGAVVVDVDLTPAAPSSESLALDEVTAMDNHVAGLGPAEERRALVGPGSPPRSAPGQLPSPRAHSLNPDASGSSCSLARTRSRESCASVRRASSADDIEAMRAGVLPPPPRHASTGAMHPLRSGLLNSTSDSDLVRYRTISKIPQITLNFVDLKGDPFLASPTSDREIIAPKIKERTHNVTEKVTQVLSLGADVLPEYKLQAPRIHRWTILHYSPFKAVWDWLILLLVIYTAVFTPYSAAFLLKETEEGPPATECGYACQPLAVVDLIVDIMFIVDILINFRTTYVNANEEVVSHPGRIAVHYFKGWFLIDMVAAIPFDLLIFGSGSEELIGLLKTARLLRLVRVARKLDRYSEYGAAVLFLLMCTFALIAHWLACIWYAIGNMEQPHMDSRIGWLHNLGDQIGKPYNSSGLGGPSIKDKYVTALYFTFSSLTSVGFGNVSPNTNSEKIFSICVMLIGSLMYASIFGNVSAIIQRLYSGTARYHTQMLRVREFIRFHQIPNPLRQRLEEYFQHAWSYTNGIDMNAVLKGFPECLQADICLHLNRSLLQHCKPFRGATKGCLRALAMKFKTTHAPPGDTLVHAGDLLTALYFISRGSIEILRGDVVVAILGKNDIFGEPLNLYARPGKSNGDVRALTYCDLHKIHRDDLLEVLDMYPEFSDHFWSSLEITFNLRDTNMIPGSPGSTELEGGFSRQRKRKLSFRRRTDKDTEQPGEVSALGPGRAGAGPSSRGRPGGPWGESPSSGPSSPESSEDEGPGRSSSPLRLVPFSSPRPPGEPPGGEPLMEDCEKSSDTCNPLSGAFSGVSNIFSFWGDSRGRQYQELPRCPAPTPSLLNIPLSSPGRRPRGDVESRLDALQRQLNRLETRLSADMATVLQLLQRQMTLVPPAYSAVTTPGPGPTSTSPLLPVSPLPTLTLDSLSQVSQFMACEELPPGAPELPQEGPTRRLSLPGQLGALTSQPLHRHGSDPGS
Sequence of PIM2 (Q9P1W9 whole entry): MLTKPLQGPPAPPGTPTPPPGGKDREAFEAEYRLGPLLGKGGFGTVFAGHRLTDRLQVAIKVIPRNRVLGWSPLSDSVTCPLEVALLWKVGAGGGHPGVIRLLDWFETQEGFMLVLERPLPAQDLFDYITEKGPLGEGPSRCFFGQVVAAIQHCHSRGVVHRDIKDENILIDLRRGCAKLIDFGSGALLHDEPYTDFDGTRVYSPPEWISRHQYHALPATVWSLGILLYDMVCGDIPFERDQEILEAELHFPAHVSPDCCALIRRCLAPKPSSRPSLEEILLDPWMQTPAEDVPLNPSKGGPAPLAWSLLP

For `CC1(C)C[C@H](N)C[C@@H](c2ccncc2NC(=O)c2nc(-c3ccccc3)cnc2N)O1` [Example 297, 3-amino-N-(4-((2S,4R)-4-amino-6,6-dimethyltetrahydro-2H-pyran-2-yl)pyridin-3-yl)-6-phenylpyrazine-2-carboxamide], the IC50 at PIM2 came out at 0.514 µM; on FGFR3 kinase, 1.6 µM.
Turning to `Nc1ncc(-c2ccccc2)nc1C(=O)Nc1cnccc1[C@H]1C[C@@H](O)[C@@]2(O)CCCC[C@H]2O1` [Example 173, 3-amino-N-(4-((2R,4R,4aS,8aR)-4,4a-dihydroxyoctahydro-2H-chromen-2-yl)pyridin-3-yl)-6-phenylpyrazine-2-carboxamide], the IC50 on hERG (dofetilide displacement) was greater than 30 µM; against FGFR3 kinase it was 0.045 µM.
As for `CC1(C)C[C@@H](N)C[C@H](c2ccncc2NC(=O)c2nc(-c3ccccc3)cnc2N)O1` [Example 296, 3-amino-N-(4-((2R,4S)-4-amino-6,6-dimethyltetrahydro-2H-pyran-2-yl)pyridin-3-yl)-6-phenylpyrazine-2-carboxamide], the IC50 is 0.283 µM at PIM2 and 0.2 µM on FGFR3 kinase.
As to `Nc1ncc(-c2ccccc2)nc1C(=O)Nc1cnccc1[C@@H]1C[C@H](O)[C@]2(O)CCCC[C@@H]2O1` [Example 176, 3-amino-N-(4-((2S,4S,4aR,8aS)-4,4a-dihydroxyoctahydro-2H-chromen-2-yl)pyridin-3-yl)-6-phenylpyrazine-2-carboxamide], the concentration for half-maximal inhibition (IC50) is greater than 30 µM at hERG (dofetilide displacement) and 8 µM against FGFR3 kinase.
For `Nc1cnc(-c2c(F)cccc2F)nc1C(=O)Nc1cnccc1[C@H]1C[C@@H](N)[C@@]2(O)CCC[C@H]2O1` [Example 213, 5-amino-N-(4-((2R,4R,4aS,7aR)-4-amino-4a-hydroxyoctahydrocyclopenta[b]pyran-2-yl)pyridin-3-yl)-2-(2,6-difluorophenyl)pyrimidine-4-carboxamide], the IC50 was greater than 30 µM at hERG (dofetilide displacement) and greater than 10 µM on FGFR3 kinase.
In the case of `CC[C@]1(O)[C@H](N)C[C@H](c2ccncc2NC(=O)c2ccc(F)c(-c3c(F)cccc3F)n2)O[C@@H]1C` [Example 232, N-(4-((2R,4R,5S,6R)-4-amino-5-ethyl-5-hydroxy-6-methyltetrahydro-2H-pyran-2-yl)pyridin-3-yl)-6-(2,6-difluorophenyl)-5-fluoropicolinamide], the half-inhibitory concentration (IC50) is 5 µM on hERG (hERG binding, dofetilide) and greater than 10 µM on FGFR3 kinase.
For the compound `Nc1ncc(-c2ccccc2)nc1C(=O)Nc1cnccc1[C@@H]1C[C@H](O)[C@]2(O)CCC[C@@H]2O1` [Example 186, 3-amino-N-(4-((2S,4S,4aR,7aS)-4,4a-dihydroxyoctahydrocyclopenta[b]pyran-2-yl)pyridin-3-yl)-6-phenylpyrazine-2-carboxamide], the IC50 on hERG (dofetilide displacement) was greater than 30 µM; at FGFR3 kinase, 3.7 µM.
Regarding `Nc1ncc(-c2ccccc2)nc1C(=O)Nc1cnccc1[C@H]1C[C@@H](O)[C@@]2(O)CCC[C@H]2O1` [Example 195, 3-amino-N-(4-((2R,4R,4aS,7aR)-4,4a-dihydroxyoctahydrocyclopenta[b]pyran-2-yl)pyridin-3-yl)-6-phenylpyrazine-2-carboxamide], the figures for the IC50 at hERG (dofetilide displacement) and against FGFR3 kinase were greater than 30 µM and 0.011 µM, respectively.
In the case of `O=C1CC[C@H]2O[C@@H](c3ccncc3NC(=O)c3ccc(F)c(-c4c(F)cccc4F)n3)C[C@@H](O)[C@@H]2N1` [Example 196, 6-(2,6-difluorophenyl)-5-fluoro-N-(4-((2R,4R,4aS,8aR)-4-hydroxy-6-oxooctahydro-2H-pyrano[3,2-b]pyridin-2-yl)pyridin-3-yl)picolinamide], the IC50 was greater than 30 µM on hERG (dofetilide displacement) and greater than 10 µM against FGFR3 kinase.
For the compound `N[C@@H]1C[C@H](c2ccncc2NC(=O)c2ccc(F)c(-c3c(F)cccc3F)n2)O[C@@H]2CCC[C@]12O` [Example 210, N-(4-((2R,4R,4aS,7aR)-4-amino-4a-hydroxyoctahydrocyclopenta[b]pyran-2-yl)pyridin-3-yl)-6-(2,6-difluorophenyl)-5-fluoropicolinamide], the figures for the IC50 on hERG (dofetilide displacement) and against FGFR3 kinase were 10 µM and greater than 10 µM, respectively.

What is called IC50 is the concentration at which inhibition is half-maximal.
